Reference: the NIST ThermoML archive (doi:10.1021/je700414c)

Assay: excess molar enthalpy (molar enthalpy of mixing); xn = mol fraction of the nth substance listed
Settings: 303.15 K, 101 kPa, Liquid

CNC=O [N-methylformamide] + Cc1ccc(C)cc1
Settings	excess molar enthalpy [kcal/mol]
x1 = 0.0589	0.0696
x1 = 0.0809	0.0789
x1 = 0.1371	0.105
x1 = 0.648	0.117
x1 = 0.7042	0.105
x1 = 0.7619	0.0911
x1 = 0.8196	0.0722
x1 = 0.8715	0.0533
x1 = 0.9536	0.0241

CNC(C)=O [N-methylacetamide] + c1ccccc1
Settings	excess molar enthalpy [kcal/mol]
x1 = 0.0848	0.0511
x1 = 0.1579	0.0562
x1 = 0.2196	0.0576
x1 = 0.2809	0.0564
x1 = 0.3924	0.0516
x1 = 0.4282	0.0464
x1 = 0.4628	0.0421
x1 = 0.495	0.0392
x1 = 0.5438	0.0344
x1 = 0.567	0.0335
x1 = 0.6331	0.0294
x1 = 0.766	0.0172
x1 = 0.8432	0.0124
x1 = 0.8931	0.00837

CNC(C)=O [N-methylacetamide] + Cc1ccccc1
Settings	excess molar enthalpy [kcal/mol]
x1 = 0.1142	0.0619
x1 = 0.2405	0.0619
x1 = 0.2954	0.0571
x1 = 0.377	0.0528
x1 = 0.4002	0.0521
x1 = 0.4365	0.0478
x1 = 0.4708	0.0442
x1 = 0.5227	0.0428
x1 = 0.5843	0.039
x1 = 0.6502	0.0301
x1 = 0.7076	0.0253
x1 = 0.7798	0.0179
x1 = 0.9016	0.00741

CNC(C)=O [N-methylacetamide] + Cc1cc(C)cc(C)c1
Settings	excess molar enthalpy [kcal/mol]
x1 = 0.1463	0.0817
x1 = 0.2448	0.0927
x1 = 0.3271	0.103
x1 = 0.4098	0.105
x1 = 0.4989	0.104
x1 = 0.5612	0.0978
x1 = 0.6649	0.0837
x1 = 0.7283	0.0758
x1 = 0.8071	0.0607
x1 = 0.884	0.0421

CNC(C)=O [N-methylacetamide] + Cc1ccc(C)cc1
Settings	excess molar enthalpy [kcal/mol]
x1 = 0.1224	0.0667
x1 = 0.1703	0.0696
x1 = 0.2407	0.0705
x1 = 0.3474	0.0705
x1 = 0.4018	0.0679
x1 = 0.4704	0.0624
x1 = 0.6138	0.0514
x1 = 0.7126	0.0402
x1 = 0.7529	0.0366
x1 = 0.8617	0.0198

CNC=O [N-methylformamide] + c1ccccc1
Settings	excess molar enthalpy [kcal/mol]
x1 = 0.0011	0.00263
x1 = 0.0019	0.00454
x1 = 0.1401	0.081
x1 = 0.2247	0.0918
x1 = 0.2851	0.0968
x1 = 0.3412	0.0994
x1 = 0.372	0.101
x1 = 0.428	0.0997
x1 = 0.4525	0.0978
x1 = 0.5333	0.0927
x1 = 0.6012	0.0837
x1 = 0.6365	0.0796
x1 = 0.7237	0.065
x1 = 0.8274	0.0425

CNC=O [N-methylformamide] + Cc1ccccc1
Settings	excess molar enthalpy [kcal/mol]
x1 = 0.1531	0.0975
x1 = 0.1852	0.102
x1 = 0.2625	0.11
x1 = 0.3018	0.112
x1 = 0.3404	0.115
x1 = 0.3983	0.115
x1 = 0.4643	0.116
x1 = 0.4821	0.114
x1 = 0.5253	0.11
x1 = 0.5951	0.103
x1 = 0.6171	0.102
x1 = 0.645	0.0961
x1 = 0.7416	0.0765
x1 = 0.8178	0.0574
x1 = 0.9166	0.0304
